# Test results published in patent publication US11884642B2, “Compounds useful as potassium channel openers” (ACOUSIA THERAPEUTICS GMBH, priority 2017, dated 2024).
# Test system: guinea pigs
# Assay: Ototoxic drug-induced (kanamycin/furosemide) hearing loss model in vivo, CAP threshold recordings of the auditory nerve
# Set-up: species or system guinea pig
# Experimental: The inventive compounds were also tested in vivo. In this context, for repeated recording of the Compound Action Potential (CAP) of the auditory nerve, guinea pigs were bilaterally implanted with a permanent gold electrode at the round window niche. The round window is an opening from the middle ear into the inner ear. The gold electrodes were connected to a miniature plug on the skull. During the experiments, audiograms were determined between 0.5 and 45.6 kHz, at a resolution of 8 steps per octave. An automated threshold search algorithm was applied.
# After a baseline audiogram was measured, the animals were pretreated with an inventive compound, as an ion channel activator, via local application to the middle ear. The corresponding solution of the inventive compound was removed after an exposure time, e. g. after 2 hours. Then, the middle ear was rinsed and dried out before CAP recordings were performed to assess threshold shifts.
# Then, deafness was induced with the Guinea pigs by local application to the middle ear of a mixture of at least one ototoxic agent and at least one inventive compound. E. g. kanamycin, furosemide or mixtures of these compounds can be used as ototoxic agents.
# The resulting CAP response thresholds were compared to ears which were exposed to the ototoxic agents alone.
# All animals received care in accordance with the standards described by the German ‘Law on Protecting Animals’ (Tierschutzgesetz) and with the European Directive 2010/63/EU for the protection of animals used for experimental purposes. Experiments were approved by the local authorities (Application HN03/15).
# All procedures were performed under anesthesia using a mixture of Fentanyl, Midazolam and Medetomidine. During surgery and measurements animals were kept on a 37° C. heating pad. For repeated recording of the Compound Action Potential (CAP) of the auditory nerve, guinea pigs were bilaterally implanted with a permanent gold electrode at the round window (RW) niche connected to a miniature plug on the skull. Audiograms were determined between 0.5 and 45.6 kHz, at a resolution of 8 steps per octave. An automated threshold search algorithm was applied.
# After a baseline audiogram was measured, animals were pretreated with an ion channel activator, in this case with ACOU001, via local application to the middle ear. […]
# The solution containing ACOU001 was removed after 2 hours and the middle ear rinsed and dried out before CAP recordings were performed to assess threshold shifts. […] After the final measurement on day 21, animals were sacrificed, cochleae fixed by perfusion with 4% paraformaldehyde and prepared for immunohistological analysis to quantify hair cell (HC) protection.
structure (smiles),measurement,setting,value
"O=C(NCc1ccc(S(F)(F)(F)(F)F)cc1)c1ccc(Cl)s1 [ACOU001, 5-Chloro-N-(4-(pentafluorosulfanyl)benzyl)thiophene-2-carboxamide]",CAP curves (threshold levels) over time after co-treatment,7 and 21 days after kanamycin/furosemide plus compound,shifted to higher threshold levels after seven days but ameliorated after 21 days
same,reduction of hearing loss compared to the ototoxic drug alone,"after 21 days, all frequencies, co-treatment with kanamycin/furosemide",25-40 dB SPL
same,CAP-threshold loss after pretreatment,"day 0, 2 hours local application to the middle ear, compared to baseline CAP-thresholds in untreated ears","small, most likely conductive, hearing loss"
same,reduction of hearing loss compared to the ototoxic drug alone,"day 0, mid to high frequencies (5-11 kHz), 100 μM with 200 mg/ml kanamycin, 50 mg/ml furosemide, local to middle ear",~25 dB SPL
